Where a chain is given by its changes, count along the chain named.
Key:
Test in all cases: E. coli hemG growth inhibition by herbicide, AtPPO1 variant
Format in all cases: cell-based
Settings in all cases: read-out: percentage growth inhibition
AtPPO1 L479M = biological target: T1, AtPPO1 L479M (Arabidopsis thaliana, UniProt P55826, L479M)
T1 construct: expressed in transfected cells; host or cells: E. coli BL21(DE3) hemG, pET24a plasmid
T1 sequence (P55826 35-537 L479M): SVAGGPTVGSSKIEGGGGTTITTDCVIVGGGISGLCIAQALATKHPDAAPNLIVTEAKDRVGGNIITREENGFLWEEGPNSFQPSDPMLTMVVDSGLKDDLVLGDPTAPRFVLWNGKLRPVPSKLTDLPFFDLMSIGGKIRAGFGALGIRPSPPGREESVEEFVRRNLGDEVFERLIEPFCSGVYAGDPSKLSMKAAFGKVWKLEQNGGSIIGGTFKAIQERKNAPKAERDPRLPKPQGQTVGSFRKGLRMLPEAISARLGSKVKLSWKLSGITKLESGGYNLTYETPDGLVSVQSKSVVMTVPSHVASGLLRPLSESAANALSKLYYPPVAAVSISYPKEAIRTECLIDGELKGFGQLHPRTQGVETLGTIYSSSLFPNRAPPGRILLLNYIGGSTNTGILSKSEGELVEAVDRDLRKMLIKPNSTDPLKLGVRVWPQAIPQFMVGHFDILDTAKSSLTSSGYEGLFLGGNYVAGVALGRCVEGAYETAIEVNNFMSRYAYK
In short: (§1)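 E. coli BL21(DE3) ΔhemG::CmR complemented by AtPPO1 variants (pET24a, T7, E. coli codon-optimised); TB + 0.1 mM IPTG, 1:100 inoculum; 6.25 ppm herbicide 0/E or 0.78 ppm herbicide B vs DMSO; 24 h, 37° C, 250 rpm; OD600 at 24 h → % growth inhibition.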

AtPPO1 Y426V = biological target: T2, AtPPO1 Y426V (Arabidopsis thaliana, UniProt P55826, Y426V)
T2 construct: expressed in transfected cells; host or cells: E. coli BL21(DE3) hemG (pET24a, T7 promoter)
T2 sequence (P55826 35-537 Y426V): T1 sequence (P55826 35-537 L479M) with Y392V, M445L
In short: as §1

AtPPO1 S305L = biological target: T3, AtPPO1 S305L (Arabidopsis thaliana, UniProt P55826, S305L)
T3 construct: expressed in transfected cells; host or cells: E. coli BL21(DE3) hemG (pET24a, T7 promoter)
T3 sequence (P55826 35-537 S305L): T1 sequence (P55826 35-537 L479M) with S271L, M445L
In short: as §1

AtPPO1 Y361R = biological target: T4, AtPPO1 Y361R (Arabidopsis thaliana, UniProt P55826, Y361R)
T4 sequence (P55826 35-537 P363R/Y361R): T1 sequence (P55826 35-537 L479M) with M445L
In short: as §1

| SMILES | inhibition at 0.78 ppm (AtPPO1 L479M) | inhibition at 0.78 ppm (AtPPO1 Y426V) | inhibition at 0.78 ppm (AtPPO1 S305L) | inhibition at 0.78 ppm (AtPPO1 Y361R) | inhibition at 6.25 ppm (AtPPO1 L479M) | inhibition at 6.25 ppm (AtPPO1 Y426V) | inhibition at 6.25 ppm (AtPPO1 S305L) | inhibition at 6.25 ppm (AtPPO1 Y361R) |
| --- | --- | --- | --- | --- | --- | --- | --- | --- |
| C#CCN1C(=O)C(F)(F)Oc2cc(F)c(-n3c(=O)n(C)c(=S)n(C)c3=O)cc21 [Herbicide B, trifludimoxazin] | 29% | 5% | 26% | 36% |  |  |  |  |
| CCOC(=O)[C@]1(C)CC(c2cc(-n3c(=O)n(C)c(=S)n(C)c3=O)c(F)cc2Cl)=NO1 [Herbicide D, ethyl (5S)-3-[2-chloro-5-(3,5-dimethyl-2,6-dioxo-4-thioxo-1,3,5-triazinan-1-yl)-4-fluoro-phenyl]-5-methyl-4H-isoxazole-5-carboxylate] |  |  |  |  | 4% | 16% | 14% | 43% |
| CC(C)N(C)S(=O)(=O)NC(=O)c1cc(-n2c(=O)cc(C(F)(F)F)n(C)c2=O)c(F)cc1Cl [Herbicide E, saflufenacil] |  |  |  |  | 28% | 7% | 39% | 56% |

Source: patent publication US20260297542A1, “HERBICIDE RESISTANT PLANTS” (SYNGENTA CROP PROTECTION AG, priority 2023, published 2026)
